System: P12-Ichikawa
Test: cell viability relative to DMSO control; higher = less cytotoxic
Details: 48 h
How it was run: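 NOMO1, SEM and P12-Ichikawa leukemia cells spent at least four passages adapting to each medium before use. They were seeded at 500 cells/well (NOMO1, SEM) or 1000 cells/well (P12-Ichikawa) in 5 μl in 1536-well plates and pin-dosed with library compounds in DMSO at 11 threefold steps from 47 μM down to 0.79 nM. After 48 h at 37°C, CellTiter-Glo One luminescence was read. Viability is reported as a percentage of the DMSO wells on each plate, with cell-free wells as background.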

[1] = HPLM + 10% dialyzed FBS, 0.000781 µM
[2] = HPLM + 10% dialyzed FBS, 0.00234 µM
[3] = HPLM + 10% dialyzed FBS, 0.00702 µM
[4] = HPLM + 10% dialyzed FBS, 0.0211 µM
[5] = HPLM + 10% dialyzed FBS, 0.0632 µM
[6] = HPLM + 10% dialyzed FBS, 0.19 µM
[7] = HPLM + 10% dialyzed FBS, 0.569 µM
[8] = HPLM + 10% dialyzed FBS, 1.71 µM
[9] = HPLM + 10% dialyzed FBS, 5.12 µM
[10] = HPLM + 10% dialyzed FBS, 15.4 µM
[11] = HPLM + 10% dialyzed FBS, 46.1 µM
[12] = RPMI 5 mM glucose + 10% FBS, 0.000781 µM
[13] = RPMI 5 mM glucose + 10% FBS, 0.00234 µM
[14] = RPMI 5 mM glucose + 10% FBS, 0.00702 µM
[15] = RPMI 5 mM glucose + 10% FBS, 0.0211 µM
[16] = RPMI 5 mM glucose + 10% FBS, 0.0632 µM
[17] = RPMI 5 mM glucose + 10% FBS, 0.19 µM
[18] = RPMI 5 mM glucose + 10% FBS, 0.569 µM
[19] = RPMI 5 mM glucose + 10% FBS, 1.71 µM
[20] = RPMI 5 mM glucose + 10% FBS, 5.12 µM
[21] = RPMI 5 mM glucose + 10% FBS, 15.4 µM
[22] = RPMI 5 mM glucose + 10% FBS, 46.1 µM
[23] = RPMI 5 mM glucose + 10% dialyzed FBS, 0.000781 µM
[24] = RPMI 5 mM glucose + 10% dialyzed FBS, 0.00234 µM
[25] = RPMI 5 mM glucose + 10% dialyzed FBS, 0.00702 µM
[26] = RPMI 5 mM glucose + 10% dialyzed FBS, 0.0211 µM
[27] = RPMI 5 mM glucose + 10% dialyzed FBS, 0.0632 µM
[28] = RPMI 5 mM glucose + 10% dialyzed FBS, 0.19 µM
[29] = RPMI 5 mM glucose + 10% dialyzed FBS, 0.569 µM
[30] = RPMI 5 mM glucose + 10% dialyzed FBS, 1.71 µM
[31] = RPMI 5 mM glucose + 10% dialyzed FBS, 5.12 µM
[32] = RPMI 5 mM glucose + 10% dialyzed FBS, 15.4 µM
[33] = RPMI 5 mM glucose + 10% dialyzed FBS, 46.1 µM

Compound	cell viability [1]	cell viability [2]	cell viability [3]	cell viability [4]	cell viability [5]	cell viability [6]	cell viability [7]	cell viability [8]	cell viability [9]	cell viability [10]	cell viability [11]	cell viability [12]	cell viability [13]	cell viability [14]	cell viability [15]	cell viability [16]	cell viability [17]	cell viability [18]	cell viability [19]	cell viability [20]	cell viability [21]	cell viability [22]	cell viability [23]	cell viability [24]	cell viability [25]	cell viability [26]	cell viability [27]	cell viability [28]	cell viability [29]	cell viability [30]	cell viability [31]	cell viability [32]	cell viability [33]
c1cc(-c2sc(-c3ccncc3)c(-c3ccncc3)c2-c2ccncc2)ccn1	101%	109%	108%	115%	121%	123%	118%	107%	110%	112%	106%	97.9%	114%	102%	113%	121%	123%	121%	126%	110%	112%	104%	97.3%	111%	109%	117%	115%	120%	124%	118%	111%	113%	98.9%
Cn1cc(-c2ccc3ncc(Cc4ccc5ncccc5c4)n3n2)cn1	96.8%	105%	107%	107%	105%	104%	113%	107%	105%	107%	100%	102%	108%	100%	103%	102%	109%	111%	107%	106%	104%	102%	103%	119%	112%	109%	110%	104%	115%	114%	102%	98.7%	110%
O=C1c2cccc(O)c2C(=O)c2c(O)cc(CO)cc21	97.1%	100%	99.9%	98.1%	92.7%	91.2%	95.2%	92.8%	91.9%	90.7%	93.4%	89.6%	90.1%	93.7%	98%	92.3%	97%	88.2%	97.1%	92.1%	96.5%	104%	91.1%	92.2%	91%	93.4%	91.8%	91.5%	89%	86.7%	88%	88.3%	91.3%
COc1ccc(-c2nc3cc(C4=NNC(=O)CC4C)ccc3[nH]2)cc1 (stereo not given)	104%	105%	109%	113%	107%	114%	108%	114%	105%	106%	98.7%	103%	110%	110%	111%	115%	105%	108%	105%	113%	111%	117%	88.3%	98.5%	104%	103%	108%	93.2%	102%	104%	109%	110%	84.1%
CCC(CC)[C@H](NC(C)=O)[C@@H]1[C@H](O)[C@@H](C(=O)O)C[C@H]1NC(=N)N	84.6%	86.3%	86.2%	95.4%	102%	84.1%	95.6%	89%	100%	91.4%	101%	85.2%	79.7%	81.5%	86%	84.2%	75.9%	84.8%	85.1%	87.4%	78.1%	86.9%	75.7%	82.1%	81.7%	86.4%	83%	80.5%	77.4%	81.8%	76.5%	82.6%	86.8%
C[Se]CCC(N)C(=O)O (stereo not given)	88.7%	86.3%	89.6%	84.9%	88.4%	85.1%	87.4%	88.7%	78.8%	78.8%	78.6%	77.1%	84.8%	81.9%	82.6%	85.9%	84.4%	81.6%	79.6%	83.1%	79%	75.6%	85.9%	77.2%	83.2%	85.1%	88.2%	85.8%	74.9%	76.4%	80.7%	78.1%	79%
CN(C)C(=O)COC(=O)Cc1ccc(OC(=O)c2ccc(NC(=N)N)cc2)cc1		122%	126%	134%	129%	135%	134%	126%	107%	98.4%	70.5%																						
CC1(C)CC(=O)c2c(C(F)(F)F)nn(-c3ccc(C(N)=O)c(NC4CCC(OC(=O)CN)CC4)c3)c2C1 (stereo not given)	107%	86.9%	96.8%	96.5%	102%	88.6%	62.2%	42.1%	36.4%	36.3%	37.9%	83.8%	93.7%	91.7%	95.4%	99.1%	66.3%	35.2%	33.2%	29.2%	28.8%	27.3%	92.9%	92.9%	93%	91.9%	89.6%	82.4%	41%	32.3%	33.3%	28.8%	28.5%
Cc1ccc(F)c(NC(=O)Nc2ccc(-c3cccc4[nH]nc(N)c34)cc2)c1	102%	113%	107%	112%	112%	115%	115%	120%	116%	111%	81.5%	112%	113%	113%	112%	118%	126%	108%	126%	120%	132%	95.3%	105%	122%	123%	122%	127%	127%	97.2%	132%	131%	116%	92.6%
O=C1[O][Pt]2([NH]C3CCCCC3[NH]2)[O]C1=O (stereo not given)	19.4%	112%	115%	111%	118%	113%	118%	114%	62.4%	2.95%	3.39%	106%	109%	106%	118%	115%	123%	128%	117%	70%	3.56%	2.67%	111%	115%	121%	119%	119%	113%	114%	113%	79%	7.33%	2.85%
CN1C(=O)COc2c(C(=O)NC3CN4CCC3CC4)cc(Cl)cc21 (stereo not given)	87.1%	107%	104%	105%	109%	109%	99.6%	96.9%	94.2%	107%	111%	95%	115%	110%	119%	132%	73%	66.4%	86.1%	95.7%	95.6%	121%	95.8%	98.4%	101%	97.8%	101%	95.4%	98.9%	96.9%	92.6%	89.2%	99%
CNC(=O)c1cc(Oc2ccc(NC(=O)Nc3cc(C(C)(C)C)nn3-c3ccc4ncccc4c3)c(F)c2)ccn1	111%	120%	124%	128%	139%	134%	132%	131%	134%	139%	125%																						
CCC1=C(C)CN(C(=O)NCCc2ccc(S(=O)(=O)NC(=O)N[C@H]3CC[C@H](C)CC3)cc2)C1=O	94.6%	102%	98.9%	104%	107%	104%	102%	105%	97.7%	109%	109%	89.5%	101%	95.5%	92.9%	95.3%	111%	107%	101%	87.3%	113%	115%	90.7%	86%	90.7%	92.5%	103%	104%	98.5%	98.8%	94.8%	104%	108%
Cc1c(OCC(F)(F)F)ccnc1C[S+]([O-])c1nc2ccccc2[nH]1 (stereo not given)	99.9%	111%	109%	105%	108%	113%	113%	112%	118%	112%	107%	99%	100%	98.2%	94%	106%	115%	108%	112%	114%	101%	102%	102%	102%	102%	111%	104%	103%	110%	112%	108%	111%	96.2%
C[C@@]12OC(=O)[C@@]1(NC(=O)[C@@H]2CCCl)[C@@H](O)[C@H]\3CCC\C=C3	96.4%	100%	104%	107%	109%	74.8%	6.01%	5.06%	3.28%	2.14%	0.616%	97.4%	109%	108%	106%	107%	69.8%	7.03%	4.69%	3.15%	2.13%	0.774%	94%	110%	105%	104%	108%	54.4%	6.75%	4.56%	3.02%	2.27%	0.713%
